Laboratory results from patent US10124012B2, “Method for treatment of hyperglycemia and hyperlipidemia” (priority 2016, dated 2018).

What was measured:
PPARγ = test: Western blotting of PPARγ in adipose tissue; assay type: in vivo, C57BL/6J mice; conditions: HFD-fed mice, AnK 10, 20, 40, Feno 250, Metf 300 mg/kg/day, vs HF group
From the text: The 4-week old male C57BL/6J mice (total amount n=63) were obtained from the National Laboratory Animal Center (Taipei, Taiwan). After acclimatization for one week, all of the mice were randomly assigned into a control (CON) group and a high-fat diet (HFD) group. […] After HFD feeding for 8 weeks, the HFD group was randomly subdivided into six groups (n=9 per group) receiving different treatments and fed on HFD. […] The HF+AnK1, HF+AnK2, and HF+AnK3 groups are collectively termed AnK-treated HFD groups in the following examples. The CON mice were administered vehicle. All treatments were administered via oral gavage once daily. After administration for 4 weeks, all mice were fasted 12 hours, and blood was collected from the retro-orbital sinus under ether anesthesia. At the end of the experiment, the mice were sacrificed via carbon dioxide inhalation. […]
About 0.1 g of liver tissue, skeletal muscle, or adipose tissue was used for the homogenate samples. […] The protein concentration in supernatant was determined with a BCA protein assay kit (Thermo Scientific, Rockford, Ill., USA). […] Immunoreactive bands were detected with ECL reagent kit (GE Healthcare BioSciences, Buckinghamshire, UK). The intensity of Western blot signals was analyzed using AlphaEase FC software (Alpha Innotech Corporation, Randburg, South Africa). […]

[1] = system: human liver cancer Hep3B cells; conditions: cited from earlier work

C=C(CC[C@@H](C)[C@H]1CC[C@H]2C3=C(C(=O)C[C@]12C)[C@@]1(C)CC[C@@H](O)[C@](C)(O)[C@@H]1C[C@@H]3O)C(C)C(=O)O (stereo partly drawn) [AnK, 3α,4β,7β-trihydroxy-4α-methylergosta-8,24(28)-dien-11-on-25S-26-oic acid]
expression levels of PPARγ (protein) (PPARγ): significantly reduced | apoptotic cell death [1]: inducing apoptotic cell death
